What was measured:
[1] = test system: metastatic lung tumors; conditions: intratracheal administration; cited from earlier work
[2] = Serum cytokine analysis (Luminex) after systemic administration; assay type: in vivo, BALB/c mice; conditions: mouse, in vivo
Method: FIG. 36. […] BALB/c mice (n=5) were i.p. administered IV270 (200 μg=185 nmol/injection) or […] (58 μg=185 nmol/injection) and sera were collected 2, 4, 6, and 24 hours following the administration. The levels of TNFα, IL-12, and IP-IO were measured by Luminex assay. *P<0.05, **P<0.01 by two way ANOVA using a Bonferroni post hoc test comparing treatment groups.
The sera were collected from mice receiving […] of 1V136, 1V270 or vehicle 2, 4, 6, and 24 hours after i.p. administration (15). Cytokine levels in sera were determined by Luminex bead assays (MILLIPLEX™ MAP kit, Millip ore, Billerica, Mass.).

[3] = test system: dermatological tumors; conditions: cited from earlier work

CCCCNc1nc(N)c2[nH]c(=O)n(Cc3ccc(C)nc3)c2n1 [SM276001]
metastatic lung tumors [1]: suppress metastatic lung tumors

COCCOc1nc(N)c2[nH]c(=O)n(Cc3ccccc3)c2n1 [1V136, reference compound]
systemic proinflammatory cytokines [2]: high levels of systemic proinflammatory cytokines

CC(C)Cn1cnc2c(N)nc3ccccc3c21 [imiquimod]
clinical efficacy ([3]; patients with basal cell carcinoma and actinic keratosis, topical): favorable clinical efficacy | toxicity on systemic administration ([3]; systemic administration): immunotoxicity induced by systemic administration

Source: patent publication US20200087625A1, “METHODS FOR ISOLATING, EXPANDING AND ADMINISTERING CANCER SPECIFIC CD8+ T CELLS” (priority 2017, published 2020)
